Three compounds from patent US20090264420A1, “ORGANIC COMPOUNDS” (priority 2006, published 2009) can be followed below.

Molecules are shown by their SMILES.

For assay [1], the target named is T1, human aromatase (Homo sapiens, UniProt P11511).
T1 construct: purchased Gentest (Woburn, Mass.)
T1 sequence (P11511 1-503): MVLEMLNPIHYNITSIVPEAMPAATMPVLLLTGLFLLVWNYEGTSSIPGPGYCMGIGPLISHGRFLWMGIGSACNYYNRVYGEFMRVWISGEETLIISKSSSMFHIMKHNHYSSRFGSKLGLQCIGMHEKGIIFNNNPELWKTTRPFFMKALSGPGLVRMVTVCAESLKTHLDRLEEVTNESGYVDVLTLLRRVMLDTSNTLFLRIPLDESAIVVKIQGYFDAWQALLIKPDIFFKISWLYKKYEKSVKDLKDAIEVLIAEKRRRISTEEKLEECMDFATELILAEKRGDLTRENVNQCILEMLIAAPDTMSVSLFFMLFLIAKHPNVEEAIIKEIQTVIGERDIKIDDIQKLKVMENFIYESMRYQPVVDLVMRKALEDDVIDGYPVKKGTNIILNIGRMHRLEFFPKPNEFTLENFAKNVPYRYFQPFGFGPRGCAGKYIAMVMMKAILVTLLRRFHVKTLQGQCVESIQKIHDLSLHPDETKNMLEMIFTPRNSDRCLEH
As to the kind of experiment: Human aromatase assay with dibenzylfluorescein substrate (fluorescence). The settings on record: 1.5 h; percentage of inhibitory rate at 10 μM; ARO: Aromatase; read-out: ARO % I @ 10 μM. It counts as biochemical. An excerpt:
(§1) Human adrenocortical carcinoma NCI-H295R cell line is obtained from American Type Culture Collection (Manassas, Va.). Insulin/transferrin/selenium (ITS)-A supplement (100×), DMEM/F-12, antibiotic/antimycotic (100×), and fetal calf serum (FCS) are purchased from Gibco (Grand Island, N.Y.). Anti-mouse PVT scintillation proximity assay (SPA) beads and NBS 96-well plates are obtained from Amersham (Piscataway, N.J.) and Corning (Acton, Mass.), respectively. Solid black 96-well flat bottom plates are purchased from Costar (Corning, N.Y.). Aldosterone and angiotensin (Ang II) are purchased from Sigma (St. Louis, Mo.). D-[1,2,6,7^−3H(N)]aldosterone was acquired from PerkinElmer (Boston, Mass.). Nu-serum was a product of BD Biosciences (Franklin Lakes, N.J.). The NADPH regenerating system, dibenzylfluorescein (DBF), and human aromatase Supersomes® are obtained from Gentest (Woburn, Mass.).
To measure aromatase activity, the human aromatase assay is performed in 96-well flat bottom plates according to a published protocol (Stresser et al, 2000) with minor modifications. Briefly, 10 μl, of an NADPH regenerating system containing 2.6 mM NADP^+, 6.6 mM glucose 6-phosphate, 6.6 mM MgCl2, and 0.8 U/ml glucose-6-phosphate dehydrogenase in 50 mM potassium phosphate, pH 7.4, is pre-incubated with the test compound at a desired concentration at 30° C. for 10 min in a total volume of 100 μl. Afterwards, 4 pmol of human aromatase, 20 μg of control microsomal protein, and 4 μM DBF in 100 μl of 50 mM potassium phosphate, pH 7.4, is added to each well and incubated at 30° C. for 90 min. The reaction is terminated by the addition of 75 μl of 2 N NaOH to each well. After 2 hr, the product, fluorescein, is measured by a fluorimeter using excitation and emission wavelengths of 485 and 538 nm, respectively.
(§2) Full concentration-response curves of the test compound are performed at least 3 times. The IC50 values are derived using a non-linear least squares curve-fitting program from Microsoft XLfit.

The target in assay [2] is T2, aldosterone synthase (Homo sapiens, UniProt P19099).
T2 construct: host or cells: NCI-H295R
T2 sequence (P19099 25-503): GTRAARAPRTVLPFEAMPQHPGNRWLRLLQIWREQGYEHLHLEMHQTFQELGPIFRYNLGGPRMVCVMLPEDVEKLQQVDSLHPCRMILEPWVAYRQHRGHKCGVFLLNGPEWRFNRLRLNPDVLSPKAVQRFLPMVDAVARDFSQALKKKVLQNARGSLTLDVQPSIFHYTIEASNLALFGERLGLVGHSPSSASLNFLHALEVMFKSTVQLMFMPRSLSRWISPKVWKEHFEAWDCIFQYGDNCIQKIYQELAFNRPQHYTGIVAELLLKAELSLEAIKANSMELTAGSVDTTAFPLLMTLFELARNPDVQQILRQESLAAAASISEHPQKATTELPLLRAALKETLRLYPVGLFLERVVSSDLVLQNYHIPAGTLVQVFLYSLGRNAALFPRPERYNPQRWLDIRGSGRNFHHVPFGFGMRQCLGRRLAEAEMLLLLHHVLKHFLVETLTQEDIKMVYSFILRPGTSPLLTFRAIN
As to the kind of experiment: Aldosterone production in Ang II-stimulated NCI-H295R cells (aldosterone synthase inhibition). The settings on record: AS: aldosterone synthase. It counts as cell-based.
Text: as §1
For in vitro measurement of aldosterone activity, human adrenocortical carcinoma NCI-H295R cells are seeded in NBS 96-well plates at a density of 25,000 cells/well in 100 μl′ of a growth medium containing DMEM/F12 supplemented with 10% FCS, 2.5% Nu-serum, 1 μg ITS/ml, and 1× antibiotic/antimycotic. The medium is changed after culturing for 3 days at 37° C. under an atmosphere of 5% CO2/95% air. On the following day, cells are rinsed with 100 μl of DMEM/F12 and incubated with 100 μl of treatment medium containing 1 μM Ang II and a compound at different concentrations in quadruplicate wells at 37° C. for 24 hr. At the end of incubation, 50 μl of medium is withdrawn from each well for measurement of aldosterone production by an RIA using mouse anti-aldosterone monoclonal antibodies.
Measurement of aldosterone activity can also be performed using, a 96-well plate format. Each test sample is incubated with 0.02 μCi of D-[1,2,6,7-^3H(N)]aldosterone and 0.3 μg of anti-aldosterone antibody in phosphate-buffered saline (PBS) containing 0.1% Triton X-100, 0.1% bovine serum albumin, and 12% glycerol in a total volume of 200 μl at room temperature for 1 hr. Anti-mouse PVT SPA beads (50 μl) are then added to each well and incubated overnight at room temperature prior to counting in a Microbeta plate counter. The amount of aldosterone in each sample is calculated by comparing with a standard curve generated using known quantities of the hormone.
as §2

Broadly, the IC50 is the midpoint of a concentration-inhibition curve. A lower IC50 goes with greater potency. Consider `CCC(C)(C)C1C(=O)N(Cc2cccc(F)c2)CCc2cncn21` (single isomer, unassigned) [Compound 2, 4-(1,1-Dimethyl-propyl)-6-(3-fluoro-benzyl)-7,8-dihydro-6H-2,3a,6-triaza-azulen-5-one], for which the inhibition at 10 µM in assay [1] is 60%. Also, in assay [2], the 50% inhibitory concentration (IC50) worked out at 48 nM.
On the same counts, the results for `N#Cc1ccc(CN2Cc3cncn3C(C3CC3)C2=O)cc1` (single isomer, unassigned) [Compound 8, 4-(5-Cyclopropyl-6-oxo-5,6-dihydro-8H-imidazo[1,5-a]pyrazin-7-ylmethyl)-benzonitrile] are 74% and 66 nM.
In the same order, the values of `CC(C)(C)C1C(=O)N(Cc2ccc(Cl)cc2)Cc2cncn21` (single isomer, unassigned) [Compound 6, 5-tert-Butyl-7-(4-chloro-benzyl)-7,8-dihydro-imidazo[1,5-a]pyrazin-6-one] are 51% and 3 nM.
